The source of these data is article PMC12736293, “Design of Artificial Peptide Against HIV-1 Based on the Heptad-Repeat Rules and Membrane-Anchor Strategies” (Pharmaceuticals, 2025).

Series [1] deals with HIV-1 Env-mediated cell–cell fusion (H9/HIV-1 IIIB cells and MT-2 cells). It is filed as cell-based. Conditions: for IC50: Calcein AM-labelled H9/HIV-1 IIIB cells, peptide 30 min at 37 °C, then MT-2 cells 2 h, fused cells counted by fluorescence microscopy, triplicate, mean ± SD, read-out: IC50, inhibitory activity on HIV-1 Env-mediated cell–cell fusion. As for the experimental part: 4.2. HIV-1 Env-Mediated Cell–Cell Fusion Assay
Briefly, the fluorescent reagent Calcein AM (abcam, Shanghai, China) was used to label H9/HIV-1 IIIB cells (obtained from the Inner Mongolia Autonomous Region New Drug Screening Engineering Research Center in Inner Mongolia Medical University, Hohhot, China). First, 2.5 μL of Calcein AM was used to stain 2 × 10^5 H9/HIV-1 IIIB cells. After labeling at 37 °C for 30 min, the cells were washed twice with PBS (Thermo Fisher Scientific, Waltham, MA, USA) and resuspended in fresh RPMI 1640 (Sigma-Aldrich, St. Louis, MO, USA) medium supplemented with 10% FBS. Next, 50 μL of diluted peptides and 50 μL of a mixture containing 2 × 10^5 H9/HIV-1 IIIB cells/mL were added to a 96-well cell culture plate and incubated at 37 °C for 30 min. Subsequently, 1 × 10^5 MT-2 cells were added to the mixture and cultured at 37 °C for 2 h. The fused cells were quantified using an inverted fluorescence microscope. The IC50 values were calculated using CalcuSyn software (Version 2.0).

For series [2], the system named is HIV-1 pseudovirus derived from the JFRL macrophagic strain (subtype B) on U87 CD4+ CCR5+ cells. It is filed as cell-based. Conditions: luciferase read-out 48 h post-infection. As for the experimental part:
4.3. Neutralization Assay of HIV-1 Pseudovirus
Briefly, U87 CD4^+ CCR5^+ cells (obtained from the Inner Mongolia Autonomous Region New Drug Screening Engineering Research Center in Inner Mongolia Medical University, Hohhot, China) (1 × 10^4 cells/well) were plated in 96-well tissue culture plates and incubated at 37 °C in a humidified 5% CO2 atmosphere for 12 h to allow cell adherence. Serial dilutions of the test peptides were prepared, and each dilution was mixed with the HIV-1 pseudovirus derived from the JFRL macrophagic strain (subtype B). After incubating the virus-peptide mixtures at 37 °C for 30 min to allow interaction, the mixtures were transferred to the pre-seeded U87 CD4^+ CCR5^+ cells. At 12 h post-infection, the culture medium was refreshed to remove unbound viruses and excess peptides. Forty-eight hours post-infection, the cells were lysed using Cell Culture Lysis Reagent (Promega, Madison, WI, USA), and the luminescence intensity (reflecting luciferase activity) was quantified using the Luciferase Assay System (Promega, E4030) according to the manufacturer’s instructions.

The target of series [3] is T1, N36/C34 six-helix bundle (6-HB) (Human immunodeficiency virus type 1 group M subtype B, UniProt P04578).
T1 construct: corresponding to the NHR region of gp41 (residues 546–581); made in house; host or cells: chemical synthesis (Fmoc solid-phase)
T1 sequence (P04578 546-581): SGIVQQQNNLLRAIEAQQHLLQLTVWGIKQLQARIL
Nature of the series: N-PAGE detection of blocking of 6-HB formation between C34 and N36. It counts as biochemical, HIV-1. Conditions: N36 (20 μM) with rising peptide concentration, 37 °C 30 min, then C34 (20 μM) 30 min. As for the experimental part: Figure 5 (A) N-PAGE to detect the blocking of 6-HB formation between C34 and N36 by EK35S peptide. N36 (20 μM) with or without EK35S was incubated at 37 °C for 30 min, followed by the addition of C34 (20 μM). The mixture was incubated at 37 °C for another 30 min before loading into the gel; (B) N-PAGE to detect the blocking of 6-HB formation between C34 and N36 by EK35S-Plam peptide. N36 (20 μM) with or without EK35S-Plam was incubated at 37 °C for 30 min, followed by the addition of C34 (20 μM). The mixture was incubated at 37 °C for another 30 min before loading into the gel.
4.6. Methods for Native Polyacrylamide Gel Electrophoresis (N-PAGE)
Peptides, as well as their equimolar mixtures, were prepared at a final concentration of 100 μM in PBS (10 mM, pH 7.4) and incubated at 37 °C for 30 min. After incubation, the peptide solutions were mixed with methyl green loading buffer in a 1:1 ratio, and 20 μL of each sample was loaded into the wells of the gel. Gel electrophoresis was performed at room temperature, initially at a constant voltage of 90 V for 0.5 h, followed by 150 V for 2–3 h. The gels were then stained with Coomassie Brilliant Blue G250 (Bio-Rad, Shanghai, China), and images were captured using the ChampGel 6000 Imaging System (Sage Creation Ltd., Beijing, China).

Series [4] has as its target T1, N36/C34 six-helix bundle (6-HB). The series is described as follows: SE-HPLC analysis of 6-HB formation between N36 and C34. It is filed as biochemical, HIV-1. As to conditions: gradual addition of peptide to the C34/N36 mixture; PBS pH 7.4, BioSep-SEC-S2000, 210 nm.
The conditions of series [5]: liver microsomes. A general note: Liver microsomes are a subcellular fraction often used to study metabolism.
Description: Phase I Metabolic Stability Assay
(§1) Experiments were carried out using the Phase I Metabolic Stability Research Kit (IPHASE, Suzhou, China). Solution A in the kit was pre-incubated at 37 °C for 5 min, and solution B was prepared from PBS (100 mM), the subject (or positive substrate), and liver microsomes. The above two were mixed and immediately placed in a 37 °C water bath for incubation. The incubation solution is quantitatively removed from the incubation system at preset time points (0, 5, 10, 15, 30, 60 min), and an equal volume of termination solution is added. Each sample was run in parallel three times. The substrate remaining amount at each time point was determined by RP-HPLC (Shimadzu preparative HPLC system, Shimadzu Corporation, Kyoto, Japan), the substrate remaining percentage was calculated, and the slope k was determined by linear regression analysis to calculate the Elimination half-life and Hepatic microsomal intrinsic clearance.
Series [6] can be described thus: in vitro. As to conditions: liver microsomes.
Description: Phase I Metabolic Stability Assay
as §1

Where two headings read alike, the source gives them in different places. Square brackets hold non-standard residues; d marks the D form. Peptide text beside a SMILES is read from it. * marks the point of attachment. X1 = CC(C)CCC[C@@H](C)[C@H]1CC[C@H]2[C@@H]3CC=C4C[C@@H](OC(=O)C*)CC[C@]4(C)[C@H]3CC[C@]12C; Palmitoyl = CCCCCCCCCCCCCCCC(=O)*; βAla = NCCC(=O)O

Usually IC50 stands for the concentration that inhibits the measured activity by half. By half-life is commonly meant the time needed for the level to fall by half in the phase considered. Low values mean fast loss, high ones slow loss.

For the compound `CC[C@H](C)[C@H](NC(C)=O)C(=O)N[C@@H](CCC(=O)O)C(=O)N[C@@H](CCC(=O)O)C(=O)N[C@@H](CC(C)C)C(=O)N[C@@H](CO)C(=O)N[C@@H](CCCCN)C(=O)N[C@@H](CCCCN)C(=O)N[C@H](C(=O)N[C@@H](CCC(=O)O)C(=O)N[C@@H](CCC(=O)O)C(=O)N[C@@H](CC(C)C)C(=O)N[C@@H](CO)C(=O)N[C@@H](CCCCN)C(=O)N[C@@H](CCCCN)C(=O)N[C@H](C(=O)N[C@@H](CCC(=O)O)C(=O)N[C@@H](CCC(=O)O)C(=O)N[C@@H](CC(C)C)C(=O)N[C@@H](CO)C(=O)N[C@@H](CCCCN)C(=O)N[C@@H](CCCCN)C(=O)N[C@H](C(=O)N[C@@H](CCC(=O)O)C(=O)N[C@@H](CCC(=O)O)C(=O)N[C@@H](CC(C)C)C(=O)N[C@@H](CO)C(=O)N[C@@H](CCCCN)C(=O)N[C@@H](CCCCN)C(=O)N[C@H](C(=O)N[C@@H](CCC(=O)O)C(=O)N[C@@H](CCC(=O)O)C(=O)N[C@@H](CC(C)C)C(=O)N[C@@H](CO)C(=O)N[C@@H](CCCCN)C(=O)N[C@@H](CCCCN)C(=O)NCCC(=O)N[C@@H](CSCC(=O)O[C@H]1CC[C@@]2(C)C(=CC[C@H]3[C@@H]4CC[C@H]([C@H](C)CCCC(C)C)[C@@]4(C)CC[C@@H]32)C1)C(N)=O)[C@@H](C)CC)[C@@H](C)CC)[C@@H](C)CC)[C@@H](C)CC` [EK35S-Chol] (Ac-IEELSKKIEELSKKIEELSKKIEELSKKIEELSKK[βAla]C(X1)-NH2), the IC50 was over 100 µM in series [1] and 85.7 ± 2.02 µM in series [2].

Turning to `CCCCCCCCCCCCCCCC(=O)NCCCC[C@H](NC(=O)CCNC(=O)[C@H](CCCCN)NC(=O)[C@H](CCCCN)NC(=O)[C@H](CO)NC(=O)[C@H](CC(C)C)NC(=O)[C@H](CCC(=O)O)NC(=O)[C@H](CCC(=O)O)NC(=O)[C@@H](NC(=O)[C@H](CCCCN)NC(=O)[C@H](CCCCN)NC(=O)[C@H](CO)NC(=O)[C@H](CC(C)C)NC(=O)[C@H](CCC(=O)O)NC(=O)[C@H](CCC(=O)O)NC(=O)[C@@H](NC(=O)[C@H](CCCCN)NC(=O)[C@H](CCCCN)NC(=O)[C@H](CO)NC(=O)[C@H](CC(C)C)NC(=O)[C@H](CCC(=O)O)NC(=O)[C@H](CCC(=O)O)NC(=O)[C@@H](NC(=O)[C@H](CCCCN)NC(=O)[C@H](CCCCN)NC(=O)[C@H](CO)NC(=O)[C@H](CC(C)C)NC(=O)[C@H](CCC(=O)O)NC(=O)[C@H](CCC(=O)O)NC(=O)[C@@H](NC(=O)[C@H](CCCCN)NC(=O)[C@H](CCCCN)NC(=O)[C@H](CO)NC(=O)[C@H](CC(C)C)NC(=O)[C@H](CCC(=O)O)NC(=O)[C@H](CCC(=O)O)NC(=O)[C@@H](NC(C)=O)[C@@H](C)CC)[C@@H](C)CC)[C@@H](C)CC)[C@@H](C)CC)[C@@H](C)CC)C(N)=O` [EK35S-Palm] (Ac-IEELSKKIEELSKKIEELSKKIEELSKKIEELSKK[βAla]K(Palmitoyl)-NH2), the “effect on the 6-HB band (N-PAGE)” value in series [3] was “gradually became significantly lighter”. Moreover, the “fold more potent than the parent EK35S” value in series [1] (cell–cell fusion and pseudovirus inhibition (Table 2 and Figure 3)) is reported as “over 200 fold”. Also, the “effect on the 6-HB complex peak (SE-HPLC)” value in series [4] is recorded as “decreased significantly”. In addition, the half-life in series [5] is 3.61 h.

On to “Ac-IEELFKKIEELFKKIEELFKKIEELFKKIEELFKK-NH2 [EK35F]”, for which the results for the half-inhibitory concentration (IC50) in series [1] and in series [2] were 92.4 ± 9.22 µM and 110 ± 2.37 µM, respectively.

As to “Ac-IEELIKKIEELIKKIEELIKKIEELIKKIEELIKK-NH2 [EK35]”, the figures for the half-maximal inhibitory concentration (IC50) in series [1] and in series [2] were over 100 µM and 119 ± 1.39 µM, respectively.

Regarding “Ac-IEELMKKIEELMKKIEELMKKIEELMKKIEELMKK-NH2 [EK35M]”, the 50% inhibitory concentration (IC50) in series [1] was 15.8 ± 8.92 µM; in series [2], 25.3 ± 0.85 µM.

As for “Ac-IEELSKKIEELSKKIEELSKKIEELSKKIEELSKK-NH2 [EK35S]”, the “effect on the 6-HB band (N-PAGE)” value in series [3] is listed as “no obvious change”. In addition, the IC50 in series [1] is 5.98 ± 1.23 µM; in series [2], 2.42 ± 0.18 µM. The “effect on the 6-HB complex peak (SE-HPLC)” value in series [4] was “does not affect 6-HB peak”. In addition, the half-life in series [6] is 2.22 h.

As for “Ac-IEELYKKIEELYKKIEELYKKIEELYKKIEELYKK-NH2 [EK35Y]”, the IC50 in series [1] is 23.2 ± 6.72 µM; in series [2], 15.2 ± 0.65 µM.

Enfuvirtide: the half-maximal inhibitory concentration (IC50) in series [1] was 0.008 ± 0.002 µM; in series [2], 0.00824 ± 0.00087 µM.

“IEELSKK IEELSKK IEELSKK IEELSKK IEELSKK-OApc [EK35S-OApc, EK35S conjugated with protected oleanolic acid derivative OApc via click chemistry]”: the values for the IC50 in series [1] and in series [2] were 4.82 ± 0.89 µM and 1.88 ± 0.14 µM, respectively.

enfuvirtide: the half-life in series [6] is 2.51 h.
